Some test systems named below: NCI-H460 lung; MDA-MB-231 breast; NCI-H522 lung; CAKI-1 renal; SF-539 CNS; HOP-62 NSCLC; HOP-92 NSCLC; RXF 393 renal; SR leukemia; SW-620 colon.
Holding throughout (assay): growth of human tumour cells (NCI), 48 h

Values joined by “and” are separate entries in the source; they are usually repeats but may differ in a detail not shown here. Equal values may be shown once.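 Assay format: 96-well plates, 48-hour exposure. GI50 marks 50% less growth. TGI: concentration producing complete growth inhibition.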

As to `C=C1SC(=Nc2ccccc2Cl)N(C(=O)c2sc3ccccc3c2Cl)C12CCCCC2`, the GI50 in the experiment on NCI-H460 lung is 4.71 µM; with MDA-MB-231 breast it was 4.9 µM; with NCI-H522 lung, 4.23 µM; in the experiment with CAKI-1 renal, 3.05 µM; in the experiment on SF-539 CNS, 34.9 µM; in the experiment with HOP-62 NSCLC, 9.08 µM. In addition, the GI50 was 2.01 µM with HOP-92 NSCLC, 15.2 µM with RXF 393 renal, 8.54 µM with SR leukemia and 5.87 µM with SW-620 colon. Besides, the TGI with NCI-H460 lung, with MDA-MB-231 breast, in the experiment with NCI-H522 lung, in the experiment on CAKI-1 renal, in the experiment with SF-539 CNS and in the experiment on HOP-62 NSCLC was greater than 100 µM in each case. For the same compound, the TGI was 9.31 µM in the experiment with HOP-92 NSCLC, 88.7 µM in the experiment on RXF 393 renal, greater than 100 µM with SR leukemia and greater than 100 µM in the experiment with SW-620 colon.
`Cc1[nH]c(N)nc(=S)c1CCC(=O)O`: the TGI with NCI-H460 lung, with MDA-MB-231 breast, with NCI-H522 lung, with CAKI-1 renal, in the experiment with SF-539 CNS and in the experiment on HOP-62 NSCLC was greater than 100 µM throughout. In addition, the TGI in the experiment on HOP-92 NSCLC, in the experiment with RXF 393 renal, in the experiment with SR leukemia and with SW-620 colon was greater than 100 µM each time.
Consider `CO[C@H]1C[C@](C)(O)Cc2cc3c(c(O)c21)C(=O)c1c(O)cc2c(c1C3=O)O[C@@H]1O[C@@]2(C)[C@H](O)[C@@H](N(C)C)[C@@H]1O`, for which the GI50 in the experiment on NCI-H460 lung is 0.035 µM; with NCI-H522 lung, 1.42 µM; with CAKI-1 renal it was 0.114 µM; in the experiment on HOP-62 NSCLC, 0.48 µM; in the experiment on HOP-92 NSCLC, 1.81 µM; in the experiment on RXF 393 renal, 1.9 µM. In addition, the GI50 with SW-620 colon is 0.847 µM. Also, the TGI in the experiment on NCI-H460 lung was 1.47 µM and 2.1 µM; in the experiment with MDA-MB-231 breast, 8 µM; with NCI-H522 lung, 3.67 µM and 8.17 µM; in the experiment on CAKI-1 renal it was 2.1 µM and 1.59 µM; in the experiment with SF-539 CNS, 2.3 µM and 2.89 µM; in the experiment with HOP-62 NSCLC, 2.57 µM and 1.5 µM. Moreover, the TGI in the experiment with HOP-92 NSCLC is 7.76 µM and 2.96 µM; in the experiment with RXF 393 renal, 4.01 µM and 4.21 µM; in the experiment on SR leukemia, 0.647 µM; with SW-620 colon it was 3.87 µM and 7.69 µM.
Turning to `O=C(c1ccco1)c1c(C(F)(F)F)n([O-])c2cc(C(F)(F)F)ccc2[n+]1=O`, the GI50 is 0.537 µM in the experiment with NCI-H460 lung; 1.08 µM in the experiment with MDA-MB-231 breast; 0.54 µM in the experiment with NCI-H522 lung; 1.51 µM in the experiment with CAKI-1 renal; 1.27 µM in the experiment with SF-539 CNS; 0.484 µM in the experiment on HOP-62 NSCLC. The GI50 is 0.252 µM in the experiment on HOP-92 NSCLC, 0.43 µM in the experiment with RXF 393 renal, 0.0394 µM in the experiment with SR leukemia and 0.498 µM with SW-620 colon. Also, the TGI with NCI-H460 lung came out at 1.8 µM; with MDA-MB-231 breast it was 2.67 µM; with NCI-H522 lung, 1.17 µM; with CAKI-1 renal, 2.97 µM; with SF-539 CNS it was 2.61 µM; with HOP-62 NSCLC it was 1.08 µM. In addition, the TGI in the experiment with HOP-92 NSCLC stood at 1.51 µM; in the experiment with RXF 393 renal it was 0.929 µM; in the experiment on SR leukemia, 0.265 µM; in the experiment with SW-620 colon, 1.1 µM.
Consider `CC(C)c1cccc(O)c(=O)c1`, for which the GI50 in the experiment with NCI-H460 lung was 0.31 mg/L; in the experiment with MDA-MB-231 breast, 6.73 mg/L; with NCI-H522 lung, 5.16 mg/L; in the experiment with CAKI-1 renal, 2.97 mg/L; in the experiment on SF-539 CNS, 4.51 mg/L; in the experiment on HOP-62 NSCLC, 5.57 mg/L. The values for the GI50 in the experiment with RXF 393 renal, in the experiment with SR leukemia and with SW-620 colon were 0.116 mg/L, 0.496 mg/L and 3.56 mg/L, respectively. Besides, the TGI is greater than 75 mg/L with MDA-MB-231 breast; 28 µg/mL and > 73.1 µM in the experiment with NCI-H522 lung; > 75 µg/mL and > 100 µM with HOP-62 NSCLC; greater than 100 µM in the experiment on HOP-92 NSCLC; > 75 µg/mL and > 100 µM in the experiment on SW-620 colon.
Take `CCCCCCCC(=O)SCC/C=C/[C@@H]1CC(=O)NCc2nc(cs2)C2=N[C@@](C)(CS2)C(=O)N[C@@H](C(C)C)C(=O)N1`: the GI50 in the experiment on NCI-H460 lung was 0.0335 µM; with MDA-MB-231 breast, 0.0286 µM; with NCI-H522 lung, 0.0278 µM; with CAKI-1 renal, 2.75 µM; in the experiment with SF-539 CNS, 0.0381 µM; in the experiment with HOP-62 NSCLC, 0.0321 µM. Also, the GI50 in the experiment with HOP-92 NSCLC was less than 0.0119 µM; in the experiment on RXF 393 renal, less than 0.0112 µM; with SR leukemia, less than 0.0112 µM; with SW-620 colon it was 0.0645 µM. The TGI is greater than 100 µM in the experiment on NCI-H460 lung; 31.5 µM in the experiment on MDA-MB-231 breast; 11.1 µM with NCI-H522 lung; 17.6 µM with CAKI-1 renal; greater than 57.8 µM in the experiment with SF-539 CNS; 13.1 µM in the experiment with HOP-62 NSCLC. Further, the TGI is 0.229 µM in the experiment with HOP-92 NSCLC, 0.0695 µM with RXF 393 renal, greater than 100 µM in the experiment with SR leukemia and 5.57 µM in the experiment on SW-620 colon.
For `O=CN1N=C(c2cccc(Nc3ccnc4cc(Cl)ccc34)c2)CC1c1ccccc1` (stereo unspecified), the GI50 in the experiment with NCI-H460 lung is 0.393 µM; with MDA-MB-231 breast, 0.858 µM; with NCI-H522 lung, 0.185 µM; with CAKI-1 renal it was 0.348 µM; in the experiment on SF-539 CNS, 0.37 µM; with HOP-62 NSCLC, 0.495 µM. The GI50 in the experiment on HOP-92 NSCLC was 0.209 µM; in the experiment on RXF 393 renal it was 0.336 µM; in the experiment on SR leukemia, 0.201 µM; with SW-620 colon, 0.311 µM. The TGI in the experiment on NCI-H460 lung was 8.4 µM; in the experiment with MDA-MB-231 breast, greater than 21.3 µM; in the experiment on NCI-H522 lung, 0.633 µM; in the experiment on CAKI-1 renal it was 7.54 µM; in the experiment with SF-539 CNS, 2.49 µM; with HOP-62 NSCLC it was 17.3 µM. Also, the TGI in the experiment on HOP-92 NSCLC amounted to 0.787 µM; with RXF 393 renal, 3.58 µM; in the experiment on SR leukemia it was 1.72 µM; in the experiment with SW-620 colon, 14.7 µM.
As for `CCCCCCCC/C=C1\CCC(CN2CCOCC2)C1=O` (stereo unspecified), the TGI came out at 39.4 µM with NCI-H460 lung; 4.42 µM with MDA-MB-231 breast; 6.79 µM in the experiment on NCI-H522 lung; 23.8 µM with CAKI-1 renal; 14.7 µM in the experiment with SF-539 CNS; 30 µM with HOP-62 NSCLC. Moreover, the TGI in the experiment with HOP-92 NSCLC turned out to be 33 µM; in the experiment with RXF 393 renal it was 25.3 µM; in the experiment with SR leukemia, 5.3 µM; with SW-620 colon, 8.39 µM.

The values above are taken from PubChem BioAssay (NCI).
